Experiment: Dose formulation stability by HPLC with radioactivity detection
Type: physicochemical
Settings: 20 mg/ml in LCO with 0.1% 1-thioglycerol
Experimental: PPI-1011 and [^14C]PPI-1011 were formulated together in liquid coconut oil (LCO) containing 0.1% 1-thioglycerol for oral dosing. For single dose studies, PPI-1011 and [^14C]PPI-1011 were combined to generate an oral formulation with a concentration of 20 mg/ml and 40 μCi/ml on the day before dosing and stored at 4°C. Formulation for the repeat dosing QWBA experiment was made on the day prior to the first dose with a concentration of 20 mg/ml and 20 μCi/ml. This formulation was then aliquoted and stored frozen at −20°C until the day of use. Concentration and radiochemical purity of all formulations were confirmed by HPLC prior to dosing.
Radiochemical concentrations and purity of the oral dose formulations were all confirmed to be >97% by HPLC with radioactivity detection. The mean radioactivity concentrations of dose formulations were 21.24 μCi/g. Representative radiochromatograms obtained from analysis of dose formulation of [^14C]PPI-1011 are shown in Supplementary Figure S1. The retention time of [^14C]PPI-1011 was approximately 12 min. The stability of the dose formulation at 20 mg/ml concentration was examined at 4°C and at −20°C for up to 24 h. The results are shown in Supplementary Figure S2. […]

CC/C=C\C/C=C\C/C=C\C/C=C\C/C=C\C/C=C\CCC(=O)O[C@H](CO[14CH2]CCCCCCCCCCCCCCC)COC(=O)CCCCC1CCSS1 (some centres unmarked) [[^14C]PPI-1011]
Radioactive purity of dose formulation after storage (stability) (up to 24 h at 4°C): 96.5%
Radioactive purity of dose formulation after storage (stability) (up to 24 h at −20°C): 97.2%

From publication PMC9081329, “Pharmacokinetics, Mass Balance, Excretion, and Tissue Distribution of Plasmalogen Precursor PPI-1011” (Frontiers in Cell and Developmental Biology, 2022)
